Test results: the OPERA property sets (Mansouri et al. 2018)
≈ marks a conversion by molar mass, not a printed value.

Structure (SMILES) | solubility (20 °C) | solubility (25 °C) | also measured
CCCCCCCCC(=O)O | 1.79 mM (≈ 284 µg/mL) |  | 
CC(=O)OCC(COC(C)=O)OC(C)=O |  | 266 mM (≈ 58000 µg/mL) | 
CCC[N+](=O)[O-] |  | 168 mM (≈ 15000 µg/mL) | 
CCOC(=O)/C=C\C(=O)OCC |  |  | solubility (30 °C): 81.3 mM (≈ 14000 µg/mL)
CC(=O)OC(C)CC(C)C (stereo not drawn) | 9.01 mM (≈ 1300 µg/mL) |  | 
CCCOCCC |  | 48 mM (≈ 4900 µg/mL) | 
COC(=O)c1ccccc1 | 15.4 mM (≈ 2100 µg/mL) |  | 
C=CC(=O)OC |  | 574 mM (≈ 49400 µg/mL) | 
CC[Si](CC)(CC)CC |  | 0.00225 mM (≈ 0.325 µg/mL) | 
CCCCCOC(C)=O | 13.2 mM (≈ 1710 µg/mL) |  | 
CCCCC(CC)CCl (stereo not drawn) | 0.673 mM (≈ 100 µg/mL) |  | 
CCCCOC(=O)CCCCCCCCC(=O)OCCCC | 0.127 mM (≈ 40 µg/mL) |  | 
CCCCC(CC)CN (stereo not drawn) | 19.3 mM (≈ 2500 µg/mL) |  | 
C=COCCCC | 30 mM (≈ 3000 µg/mL) |  | 
CCCCCCCCC |  | 0.00172 mM (≈ 0.22 µg/mL) | 
CC(C)CC(C)O (stereo not drawn) |  | 161 mM (≈ 16400 µg/mL) | 
FC(F)(Cl)C(F)(F)Cl |  | 0.761 mM (≈ 130 µg/mL) | 
C[Si](C)(C)C |  | 0.222 mM (≈ 19.6 µg/mL) | 
CCCCOC(=O)/C=C\C(=O)OCCCC |  | 2.19 mM (≈ 500 µg/mL) | 

Structure (SMILES) | solubility (20 °C) | solubility (25 °C) | also measured
CC1CCCO1 (stereo not drawn) |  | 1810 mM (≈ 156000 µg/mL) | 
CC(C)CCOCCC(C)C |  | 1.26 mM (≈ 200 µg/mL) | 
CCCC(=O)OCC | 47.3 mM (≈ 5500 µg/mL) |  | 
FC(F)(F)Cl |  | 0.862 mM (≈ 90 µg/mL) | 
Cc1ccc(Cl)c(Cl)c1 |  |  | solubility (30 °C): 0.161 mM (≈ 26 µg/mL)
FC(Cl)(Cl)C(F)(Cl)Cl |  | 0.617 mM (≈ 126 µg/mL) | 
CCCCOCCCC |  | 2.3 mM (≈ 300 µg/mL) | 
C=COC(C)=O | 232 mM (≈ 20000 µg/mL) |  | 
CCCCCC(C)=O |  | 37.7 mM (≈ 4300 µg/mL) | 
CCCC(C)C |  | 0.172 mM (≈ 14.8 µg/mL) | 
CCCCCl |  | 11.9 mM (≈ 1100 µg/mL) | 
CCOC(=O)CC(C)C | 18.5 mM (≈ 2410 µg/mL) |  | 
N#Cc1ccccc1 |  | 19.4 mM (≈ 2000 µg/mL) | 
CCCCC |  | 0.527 mM (≈ 38 µg/mL) | 
C=C(C)C(=O)O | 1030 mM (≈ 89000 µg/mL) |  | 
CCC(C)C |  | 0.676 mM (≈ 48.8 µg/mL) | 
CCCCS | 6.62 mM (≈ 597 µg/mL) |  | 
COC(=O)/C=C\C(=O)OC |  | 555 mM (≈ 80000 µg/mL) | 
CCOCC |  | 815 mM (≈ 60400 µg/mL) | 
